# Reference: ChEMBL document CHEMBL4428105, “Conformational and electrostatic analysis of SN1 donor analogue glycomimetic inhibitors of ST3Gal-I mammalian sialyltransferase” (Bioorg Med Chem, 2016)
# Experiment: Inhibition of rat recombinant ST3Gal-1 using CMP-Neu5Ac as substrate after 20 mins by fluorescence based reverse phase HPLC analysis
row,IC50,SMILES
1,0.047 mM,CC(=O)N[C@H]1[C@H]([C@H](O)[C@H](O)CO)O[C@](CCP(=O)(O)OC[C@H]2O[C@@H](n3ccc(N)nc3=O)[C@H](O)[C@@H]2O)(C(=O)O)C[C@@H]1O
2,3.3 mM,CC(=O)N[C@H]1[C@H]([C@H](O)[C@H](O)CO)O[C@](CCP(=O)(O)OC[C@H]2O[C@@H](n3ccc(N)nc3=O)[C@H](O)[C@@H]2O)(C(N)=O)C[C@@H]1O
3,4.2 mM,CC(=O)N[C@H]1[C@H]([C@H](O)[C@H](O)CO)O[C@@](CO)(CCP(=O)(O)OC[C@H]2O[C@@H](n3ccc(N)nc3=O)[C@H](O)[C@@H]2O)C[C@@H]1O
